Experimental data published in patent US20210030022A1, “NOVEL USE OF SUBSTITUTED CHROMAN-6-OLS” (DSM IP ASSETS B.V., priority 2018, published 2021).

Tests used:
[1] = Oxipres antioxidant efficacy value (EV) in fish meal; conditions: Oxipres 70° C., 5 bar O2, equimolar to BHT; EV relative to BHT (EV=1)
Description: Oxidative stability was assessed using an Oxipres (Mikrolab Aarhus A/S, Hojbjerg, Denmark). The ML OXIPRES® is designed to monitor the oxidation of heterogeneous products. Consumption of oxygen results in a pressure drop which is measured by means of pressure transducers. The samples are heated to accelerate the process and shorten the analysis time (Mikrolab Aarhus 2012).
Sample weights were 50 g. They were loaded into the Oxipres vessels and placed inside the stainless-steel pressure vessel and sealed. The pressure vessels were purged with pure oxygen and filled to an initial oxygen pressure of 5 bar and maintained at 70° C. during measurement (D. Ying, L. Edin, L. Cheng, L. Sanguansri, M. A. Augustin, LWT—Food Science and Technology 2015, 62, 1105-1111: “Enhanced oxidative stability of extruded product containing polyunsaturated oils.”).
The oxygen pressure was recorded as function of time. After sample load and temperature rise the pressure in the device is increasing within 10 hours up to the starting pressure. Thereafter it is decreasing. Consequently, the starting pressure is considered as being the pressure after 10 hours. The analysis ends after 130 hours at 70° C. The oxygen consumption ‘O2’ of the tested sample is calculated as follows: […]
A factor of protection called ‘EV’ (Efficacy Value) was developed to quantify with a relative number (relative to BHT) the antioxidant effect of the tested candidates. EV was calculated as follows:
EV, being relative to BHT (3,5-di-tert-butyl-4-hydroxy-toluene) (EV=1), makes it possible to compare the antioxidant compounds in a defined feed application.
Each of the compounds of formulae (1) to (6) were mixed into each matrix 1, 2 or 3 (pet food, poultry meal, fish meal) in an equimolar ratio compared to BHT. Batches of 200 g feed were produced in order to handle a minimum of 30 mg of antioxidant. First, a 1% pre-dilution of the antioxidant with the feed material was made. Then this pre-dilution was added to the final batch, mixed, sieved (1.25 mm sieve) and mixed using a turbula mixer. Thereafter 55 g of the final batch were packed into polyethylene bags, and stored at 4° C. until start of the Oxipres assay. Spare sample were stored at 4° C. Compound of formula (3) was measured in all three matrices. Compound of formula (1) was measured in matrix 1 and 2. Compound of formula (2) was measured in matrix 2. Compounds of formulae (4), (5) and (6) were measured in matrix 3. An efficacy value 0.7 has been considered as acceptable, an efficacy value ≥ the efficacy value of alpha-tocopherol as good, and an efficacy value ≥ the efficacy value of BHT as very good.

Solubility in fish oil = assay type: physicochemical
Description: The compounds of formulae (4), (6), (8) and (9) were evaluated primarily for their oxidative stability by the Oil Stability Index (OSI) measurements. Two different levels of these antioxidants (0.5 and 2 mg/g) were used in 5 g of natural fish oil (Product code: FG30TG) and used in the Oxidative Stability Instrument at 80° C. with the air flow rate of 40 psi. The solubility of different amounts and types of antioxidants used in OSI was checked before and after the application. […]

[2] = Oil Stability Index in crude algal oil, Example 12; conditions: for prooxidant effect in algal oil: higher levels (2 mg/g)
Text: To evaluate the efficacy of the compounds of formulae (4), (6), (8) and (9) in algal oils, only oil soluble compounds were used. […] Protection Factors of all these compounds, including MNT, in fish oil could be improved by the addition of AP (Tables 22-23) indicating the possibility of combining AP to all these novel compounds to improve the oxidative stability of matrices containing high amounts of unsaturated fatty acids such as fish oil.

[3] = Polymers generated at end of OSI experiment in fish oil, by LC; conditions: FG30TG oil, end of stabilization experiment
Description: The compounds of formulae (6) and (9) (see Table 14 below), compound of formula (4) (see Table 15 below) and compound of formula (8) (see Table 16 below) were used at different times in the Oxidative Stability instruments under similar operational conditions used for fish oil evaluations. MNT and the oil without any antioxidants (“Blank”) were always used to compare. Also, the synergistic effect of only oil soluble compounds with ascorbyl palmitate was determined using the OSI values. The polymers generated at the end of the experiment were determined by LC (LC=liquid chromatography). Polymers generated at the end of the stabilization experiment of fish oil with compounds of formulae 6 and 9 and AP are shown in Table 24. A combination of complex, polymeric compounds generated at the end of the oxidation cascade of unsaturated fatty acids indicate the levels of overall oxidation of the matrix. The generation of such polymers in fish oil containing these novel antioxidant compounds could be reduced considerably when AP was added as a synergistic compound (Table 24).

[4] = Storage stability in fish oil (PV, p-AV, CD), Example 12; conditions: FG30TG, 2 mg/g
Description: Tables 25, 26 and 27 show the PV (peroxide value), p-AV (p-anisidine value) and CD (Conjugated dienoic acid %) of the fish oil samples stabilized with compounds of formulae (6), (8) and (9), respectively.
For the storage stability study oil soluble compounds were used in fish oil at 2 mg/g level only. […] There was no considerable variation in p-AV and CD (Tables 26-27) during the storage.

[5] = Oil Stability Index (OSI) in fish oil, Example 12; conditions: for OSI / Protection Factor (%): FG30TG fish oil; for antioxidant effect (OSI) in fish oil compared with MNT: Example 12, same level of MNT
Description: The compounds of formulae (4), (6), (8) and (9) were evaluated primarily for their oxidative stability by the Oil Stability Index (OSI) measurements. Two different levels of these antioxidants (0.5 and 2 mg/g) were used in 5 g of natural fish oil (Product code: FG30TG) and used in the Oxidative Stability Instrument at 80° C. with the air flow rate of 40 psi. The solubility of different amounts and types of antioxidants used in OSI was checked before and after the application.
The compounds of formulae (6) and (9) (see Table 14 below), compound of formula (4) (see Table 15 below) and compound of formula (8) (see Table 16 below) were used at different times in the Oxidative Stability instruments under similar operational conditions used for fish oil evaluations. MNT and the oil without any antioxidants (“Blank”) were always used to compare. Also, the synergistic effect of only oil soluble compounds with ascorbyl palmitate was determined using the OSI values. The polymers generated at the end of the experiment were determined by LC (LC=liquid chromatography).
The Protection Factors (PF) for each compound in oil were calculated in percentage as: […]

[6] = Table 20, 2 mg/g + 0.5 mg/g of AP (ascorbyl palmitate)
[7] = Table 22, 2 mg/g + 0.5 mg/g of AP

SMILES	Solubility in fish oil, 80° C. (Solubility in fish oil; 0.5 mg/g)	Solubility in fish oil, Room temp. (Solubility in fish oil; 0.5 mg/g)	Solubility in fish oil, 80° C. (Solubility in fish oil; 2.0 mg/g)	Solubility in fish oil, Room temp. (Solubility in fish oil; 2.0 mg/g)	OSI values in algal oil compared with MNT [2]	prooxidant effect in algal oil [2]	Polymers (%) ([3]; 2 mg/g + 0.5 mg/g of AP)	Polymers (%) ([3]; 2 mg/g, without AP)	CD (conjugated dienoic acid in %) ([4]; 4 days)	PV (peroxide value) ([4]; 4 days)	p-AV (p-anisidine value) ([4]; 4 days)	CD (conjugated dienoic acid in %) ([4]; 6 days)	PV (peroxide value) ([4]; 6 days)	p-AV (p-anisidine value) ([4]; 6 days)	CD (conjugated dienoic acid in %) ([4]; 8 days)	PV (peroxide value) ([4]; 8 days)	p-AV (p-anisidine value) ([4]; 8 days)	CD (conjugated dienoic acid in %) ([4]; 11 days)	PV (peroxide value) ([4]; 11 days)	p-AV (p-anisidine value) ([4]; 11 days)	further results
Cc1c(C)c2c(c(C)c1O)CCC(C)(CO)O2 (centres unmarked) [Compound of formula (6), 2-Hydroxymethyl-2,5,7,8-Tetramethyl-6-Chromanol]	Soluble	Soluble	Soluble	Soluble	clearly lower OSI values than those of MNT	possible prooxidant effect	25.09%	37.37%	0.7%	4.1	10.4	0.7%	7	9.7	0.7%	7.9	10.2	0.8%	10.2	10.4	EV in Fish meal [1]: 1.03; CD (conjugated dienoic acid in %) ([4]; 13 days): 0.8%; PV (peroxide value) ([4]; 13 days): 14.9; p-AV (p-anisidine value) ([4]; 13 days): 10.3; CD (conjugated dienoic acid in %) ([4]; 15 days): 0.8%; PV (peroxide value) ([4]; 17 days): 18.6; p-AV (p-anisidine value) ([4]; 17 days): 10.7; CD (conjugated dienoic acid in %) ([4]; Initial): 0.7%; PV (peroxide value) ([4]; Initial): 0.9; p-AV (p-anisidine value) ([4]; Initial): 9.9; OSI ([5]; Table 14, 80° C., 0.5 mg/g): 7.05 h; OSI ([5]; Table 14, 80° C., 2 mg/g): 7.30 h; Protection Factor (%) ([5]; Table 17, 0.5 mg/g): 54.95%; Protection Factor (%) ([5]; Table 17, 2 mg/g): 60.44%; OSI [5, 6]: 11.20 h; OSI ([5]; Table 20, 2 mg/g, without AP): 6.15 h; Protection Factor (%) [5, 7]: 141.9%; Protection Factor (%) ([5]; Table 22, 2 mg/g, without AP): 32.8%; antioxidant effect (OSI) in fish oil compared with MNT [5]: comparable to the effect of MNT
Cc1c(C)c2c(c(C)c1O)CCC(C)(CCCC(C)C)O2 (centres unmarked) [Compound of formula (9)]	Soluble	Soluble	Soluble	Soluble	clearly lower OSI values than those of MNT	possible prooxidant effect	31.06%	40.34%	0.7%	2.9	10.5	0.7%	7.3	9.9	0.8%	8.8	10.3	0.9%	11.2	10.5	CD (conjugated dienoic acid in %) ([4]; 13 days): 0.8%; PV (peroxide value) ([4]; 13 days): 15; p-AV (p-anisidine value) ([4]; 13 days): 10.5; CD (conjugated dienoic acid in %) ([4]; 15 days): 0.8%; PV (peroxide value) ([4]; 17 days): 19.2; p-AV (p-anisidine value) ([4]; 17 days): 11; CD (conjugated dienoic acid in %) ([4]; Initial): 0.7%; PV (peroxide value) ([4]; Initial): 0.9; p-AV (p-anisidine value) ([4]; Initial): 9.9; OSI ([5]; Table 14, 80° C., 0.5 mg/g): 5.75 h; OSI ([5]; Table 14, 80° C., 2 mg/g): 6.05 h; Protection Factor (%) ([5]; Table 17, 0.5 mg/g): 26.37%; Protection Factor (%) ([5]; Table 17, 2 mg/g): 32.97%; OSI [5, 6]: 8.93 h; OSI ([5]; Table 20, 2 mg/g, without AP): 6.30 h; Protection Factor (%) [5, 7]: 92.8%; Protection Factor (%) ([5]; Table 22, 2 mg/g, without AP): 36.1%; antioxidant effect (OSI) in fish oil compared with MNT [5]: comparable to the antioxidative effect of MNT
